Measured values published in US11053204B2, “Pyrimidinyloxy benzene derivatives as herbicides” (FMC Corporation, priority 2015, dated 2021).

Key:
Assay type in all cases: in vivo
[1] = system: Italian ryegrass (Lolium multiflorum); assay: Test A preemergence, visual injury rating
Summary of the method: (§1)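 Visual injury scored 0–100 (100 = complete control) against untreated controls about 10 days after treatment in a greenhouse. Test chemicals, formulated with surfactant in non-phytotoxic solvent, were sprayed on soil preemergence or on 2-10 cm, one- to two-leaf plants postemergence.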

[2] = system: barnyardgrass (Echinochloa crus-galli); assay: Test A preemergence, visual injury rating
Summary of the method: as §1

[3] = system: giant foxtail (Setaria faberii); assay: Test A preemergence, visual injury rating
Summary of the method: as §1

kochia (Kochia scoparia) = assay: Test A preemergence, visual injury rating
Summary of the method: as §1

[4] = system: pigweed (Amaranthus retroflexus); assay: Test A preemergence, visual injury rating
Summary of the method: as §1

[5] = system: ragweed (common ragweed, Ambrosia elatior); assay: Test A preemergence, visual injury rating
Summary of the method: as §1

[6] = system: blackgrass (Alopecurus myosuroides); assay: Test C postemergence, plant response rating; conditions: Alopecurus myosuroides, post-emergence
Summary of the method: (§2)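 Visual injury score, 0 = no effect, 100 = complete control, assigned against untreated controls after 13 to 15 d in the greenhouse. Compounds were applied in a surfactant-containing non-phytotoxic solvent mix, preemergence to seeded loam/sand or silt loam soil, or postemergence to 1- to 4-leaf plants (2 to 18 cm).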

[7] = system: chickweed (common chickweed, Stellaria media); assay: Test C postemergence, plant response rating; conditions: Stellaria media, post-emergence
Summary of the method: as §2

corn (Zea mays) = assay: Test C postemergence, plant response rating; conditions: Zea mays, post-emergence
Summary of the method: as §2

[8] = system: crabgrass, large (large crabgrass, Digitaria sanguinalis); assay: Test C postemergence, plant response rating; conditions: Digitaria sanguinalis, post-emergence
Summary of the method: as §2

[9] = system: foxtail, giant (giant foxtail, Setaria faberii); assay: Test C postemergence, plant response rating; conditions: Setaria faberi, post-emergence
Summary of the method: as §2

[10] = system: galium (catchweed bedstraw, Galium aparine); assay: Test C postemergence, plant response rating; conditions: Galium, post-emergence
Summary of the method: as §2

[11] = system: lambsquarters (Chenopodium album); assay: Test C postemergence, plant response rating; conditions: Chenopodium album, post-emergence
Summary of the method: as §2

[12] = system: nutsedge, yellow (yellow nutsedge, Cyperus esculentus); assay: Test C postemergence, plant response rating; conditions: Cyperus, post-emergence
Summary of the method: as §2

[13] = system: oat, wild (wild oat Avena fatua); assay: Test C postemergence, plant response rating; conditions: Avena fatua, post-emergence
Summary of the method: as §2

[14] = system: ryegrass, Italian (Italian ryegrass, Lolium multiflorum); assay: Test C postemergence, plant response rating; conditions: Lolium multiflorum, post-emergence
Summary of the method: as §2

soybean (Glycine max) = assay: Test C postemergence, plant response rating; conditions: Glycine max, post-emergence
Summary of the method: as §2

[15] = system: wheat (winter wheat, Triticum aestivum); assay: Test C postemergence, plant response rating; conditions: Triticum aestivum, post-emergence
Summary of the method: as §2

[16] = 31 g ai/ha, 0 to 100 scale, 0 no effect, 100 complete control
[17] = 125 g ai/ha, 0 to 100 scale (0 no effect, 100 complete control)
[18] = 62 g ai/ha, scale 0 to 100 (0 no effect, 100 complete control)
[19] = 125 g ai/ha, scale 0 to 100 (0 no effect, 100 complete control)

Structure (SMILES): O=C(CCC(F)(F)F)c1c(Cl)cccc1Oc1ncc(Cl)cn1 [Compound 107, 1-[2-chloro-6-[(5-chloro-2-pyrimidinyl)oxy]phenyl]-4,4,4-trifluoro-1-butanone]
- Plant response rating, Ryegrass, Italian [1, 16]: 30
- Plant response rating, Ryegrass, Italian [1, 17]: 80
- Plant response rating, Barnyardgrass [2, 16]: 90
- pest or weed control at 125 g/ha ([2]; Echinochloa crus-galli, pre-emergence, 240 h, 125 g ai/ha, 0 to 100 scale (0 no effect, 100 complete control), read-out: Barnyardgrass plant response rating): 100%
- Plant response rating, Foxtail, Giant [3, 16]: 100
- Plant response rating, Foxtail, Giant [3, 17]: 100
- Plant response rating, Kochia (kochia (Kochia scoparia); [16]): 90
- Plant response rating, Kochia (kochia (Kochia scoparia); [17]): 100
- Plant response rating, Pigweed [4, 16]: 100
- Plant response rating, Pigweed [4, 17]: 100
- Plant response rating, Ragweed [5, 16]: 0
- Plant response rating, Ragweed [5, 17]: 20
- pest or weed control at 16 g/ha ([6]; 16 g ai/ha, scale 0 to 100): 5%
- pest or weed control at 31 g/ha ([6]; 31 g ai/ha, scale 0 to 100): 20%
- pest or weed control at 62 g/ha [6, 18]: 20%
- pest or weed control at 125 g/ha [6, 19]: 60%
- pest or weed control at 16 g/ha ([7]; 16 g ai/ha, scale of 0 to 100): 80%
- pest or weed control at 31 g/ha ([7]; 31 g ai/ha, scale 0 to 100): 90%
- pest or weed control at 62 g/ha [7, 18]: 98%
- pest or weed control at 125 g/ha [7, 19]: 100%
- Corn plant response rating (crop injury, 0 = no effect, 100 = complete kill) at 16 g/ha (corn (Zea mays); 16 g ai/ha, scale of 0 to 100): 10%
- Corn plant response rating (crop injury, 0 = no effect, 100 = complete kill) at 31 g/ha (corn (Zea mays); 31 g ai/ha, scale 0 to 100): 20%
- plant injury at 62 g/ha (corn (Zea mays); [18]): 20%
- plant injury at 125 g/ha (corn (Zea mays); [19]): 30%
- pest or weed control at 16 g/ha ([8]; 16 g ai/ha, scale of 0 to 100): 10%
- pest or weed control at 31 g/ha ([8]; 31 g ai/ha, scale 0 to 100): 10%
- pest or weed control at 62 g/ha [8, 18]: 30%
- pest or weed control at 125 g/ha [8, 19]: 60%
- pest or weed control at 16 g/ha ([9]; 16 g ai/ha, scale of 0 to 100): 10%
- pest or weed control at 31 g/ha ([9]; 31 g ai/ha, scale 0 to 100): 10%
- pest or weed control at 62 g/ha [9, 18]: 20%
- pest or weed control at 125 g/ha [9, 19]: 25%
- pest or weed control at 16 g/ha ([10]; 16 g ai/ha, scale of 0 to 100): 75%
- pest or weed control at 31 g/ha ([10]; 31 g ai/ha, scale 0 to 100): 80%
- pest or weed control at 62 g/ha [10, 18]: 90%
- pest or weed control at 125 g/ha [10, 19]: 95%
- pest or weed control at 16 g/ha ([11]; 16 g ai/ha, scale of 0 to 100): 80%
- pest or weed control at 31 g/ha ([11]; 31 g ai/ha, scale 0 to 100): 85%
- pest or weed control at 62 g/ha [11, 18]: 100%
- pest or weed control at 125 g/ha [11, 19]: 100%
- pest or weed control at 16 g/ha ([12]; 16 g ai/ha, scale of 0 to 100): 5%
- pest or weed control at 31 g/ha ([12]; 31 g ai/ha, scale 0 to 100): 5%
- pest or weed control at 62 g/ha [12, 18]: 5%
- pest or weed control at 125 g/ha [12, 19]: 5%
- pest or weed control at 16 g/ha ([13]; 16 g ai/ha, scale of 0 to 100): 5%
- pest or weed control at 31 g/ha ([13]; 31 g ai/ha, scale 0 to 100): 40%
- pest or weed control at 62 g/ha [13, 18]: 35%
- pest or weed control at 125 g/ha [13, 19]: 45%
- pest or weed control at 16 g/ha ([14]; 16 g ai/ha, scale of 0 to 100): 5%
- pest or weed control at 31 g/ha ([14]; 31 g ai/ha, scale 0 to 100): 35%
- pest or weed control at 62 g/ha [14, 18]: 20%
- pest or weed control at 125 g/ha [14, 19]: 50%
- plant injury at 16 g/ha (soybean (Glycine max); 16 g ai/ha, scale of 0 to 100): 50%
- plant injury at 31 g/ha (soybean (Glycine max); 31 g ai/ha, scale 0 to 100): 40%
- plant injury at 62 g/ha (soybean (Glycine max); [18]): 95%
- plant injury at 125 g/ha (soybean (Glycine max); [19]): 95%
- plant injury at 16 g/ha ([15]; 16 g ai/ha, scale of 0 to 100): 5%
- plant injury at 31 g/ha ([15]; 31 g ai/ha, scale 0 to 100): 5%
- plant injury at 125 g/ha [15, 19]: 30%
- plant injury at 62 g/ha ([15]; rate not given, scale 0 to 100, read-out: Plant response rating, Wheat): 10%
